What follows are compounds tested against 5-HT2A receptors (UniProt P14842) (assay: in-vitro affinity to 5-HT2A receptors, [3H]ketanserine displacement (Example A1)).
Assay type: binding
From the text: The 5-HT2A receptors are exposed both to [^3H]ketanserine (a substance known for its affinity to the receptor) and also to the test compound. The decrease in the affinity of [^3H]ketanserine to the receptor is an indication of the affinity of the test substance to the 5-HT2A receptor.
`CC(C)(C)OC(=O)N1CCN(Cc2cnn(-c3ccc(-c4cccc(F)c4)cc3)c2-c2ccco2)CC1` [Example 638, tert-Butyl 4-[1-(3′-Fluorobiphenyl-4-yl)-5-furan-2-yl-1H-pyrazol-4-ylmethyl]piperazine-1-carboxylate] was tested, and the IC50 was 0.042 µM.
Compound `Fc1ccc(-c2ccc(-n3ncc(CNC4CN5CCC4CC5)c3-c3ccco3)cc2)cc1` (centres unmarked) [Example 621] has an IC50 of 0.034 µM.
Work on `CN(CCC#N)Cc1cnn(-c2ccc(-c3ccc(F)cc3)cc2)c1-c1ccco1` [Example 669, 3-{[1-(4′-Fluorobiphenyl-4-yl)-5-furan-2-yl-1H-pyrazol-4-ylmethyl]methylamino}propionitrile] yielded an IC50 of 0.095 µM.
Work on `OCCCNCc1cnn(-c2ccc(-c3ccc(F)cc3)cc2)c1-c1ccco1` [Example 668, 3-{[1-(4′-Fluorobiphenyl-4-yl)-5-furan-2-yl-1H-pyrazol-4-ylmethyl]amino}propan-1-ol] yielded an IC50 of 0.094 µM.
Work on `COc1ccc(-c2ccc(-n3ncc(CNCc4ccncc4)c3-c3ccco3)cc2)cc1` [Example 615, [5-Furan-2-yl-1-(4′-methoxybiphenyl-4-yl)-1H-pyrazol-4-ylmethyl]pyridin-4-ylmethylamine] yielded an IC50 of 0.032 µM.
`COc1ccc(-c2ccc(-n3ncc(CNCc4nccs4)c3-c3ccco3)cc2)cc1` [Example 688, [5-Furan-2-yl-1-(4′-methoxybiphenyl-4-yl)-1H-pyrazol-4-ylmethyl]thiazol-2-ylmethylamine] gave an IC50 of 0.22 µM.
With `Fc1ccc(-c2ccc(-n3ncc(CN4CCC(N5CCCC5)CC4)c3-c3ccoc3)cc2)cc1` [Example 692, 1-[1-(4′-Fluorobiphenyl-4-yl)-5-furan-3-yl-1H-pyrazol-4-ylmethyl]-4-pyrrolidin-1-ylpiperidine] the IC50 was 0.26 µM.
`NC1CCN(Cc2cnn(-c3ccc(-c4ccc5c(c4)OCCO5)cc3)c2-c2ccco2)CC1` [Example 652, 1-{1-[4-(2,3-Dihydrobenzo-1,4-dioxin-6-yl)phenyl]-5-furan-2-yl-1H-pyrazol-4-ylmethyl}piperidin-4-ylamine] was tested, and the IC50 was 0.055 µM.
With `CN1CCN(Cc2cnn(-c3ccc(-c4ccc(S(C)(=O)=O)cc4)cc3)c2-c2ccccc2F)CC1` [Example 663, 1-[5-(2-Fluorophenyl)-1-(4′-methanesulfonylbiphenyl-4-yl)-1H-pyrazol-4-ylmethyl]-4-methylpiperazine] the IC50 was 0.085 µM.
`Cc1noc(C)c1-c1c(CN(C)C)cnn1-c1ccc(-c2ccc(F)cc2)cc1` [Example 577, [5-(3,5-Dimethylisoxazol-4-yl)-1-(4′-fluorobiphenyl-4-yl)-1H-pyrazol-4-ylmethyl]dimethylamine] was tested, and the IC50 was 0.016 µM.
`OCCOCCNCc1cnn(-c2ccc(-c3ccc(F)cc3)cc2)c1-c1ccco1` [Example 666, 2-(2-{[1-(4′-Fluorobiphenyl-4-yl)-5-furan-2-yl-1H-pyrazol-4-ylmethyl]amino}ethoxy)ethanol] was tested, and the IC50 was 0.092 µM.
In the case of `CCN1CCN(Cc2cnn(-c3ccc(-c4ccc(F)cc4)cc3)c2-c2cccc(Cl)c2)CC1` [Example 650, 1-[5-(3-Chlorophenyl)-1-(4′-fluorobiphenyl-4-yl)-1H-pyrazol-4-ylmethyl]-4-ethylpiperazine], the IC50 is reported as 0.054 µM.
Compound `CN1CCN(Cc2cnn(-c3ccc(-c4ccc5c(c4)OCCO5)cc3)c2-n2cccc2)CC1` [Example 651, 1-{1-[4-(2,3-Dihydrobenzo-1,4-dioxin-6-yl)phenyl]-5-pyrrol-1-yl-1H-pyrazol-4-ylmethyl}-4-methylpiperazine] has an IC50 of 0.055 µM.
`CC1CCCN1Cc1cnn(-c2ccc(-c3ccc4c(c3)OCO4)cc2)c1-c1ccco1` (centres unmarked) [Example 616, 1-(4-Benzo-1,3-dioxol-5-ylphenyl)-5-furan-2-yl-4-(2-methylpyrrolidin-1-ylmethyl)-1H-pyrazole] gave an IC50 of 0.032 µM.
With `Cc1noc(C)c1-c1c(CN2CCC(O)C2)cnn1-c1ccc(-c2ccc(F)cc2)cc1` (centres unmarked) [Example 690, 1-[5-(3,5-Dimethylisoxazol-4-yl)-1-(4′-fluorobiphenyl-4-yl)-1H-pyrazol-4-ylmethyl]pyrrolidin-3-ol] the IC50 was 0.24 µM.
`Fc1ccc(-c2ccc(-n3ncc(CNCCc4ccncc4)c3-c3ccco3)cc2)cc1` [Example 655, [1-(4′-Fluorobiphenyl-4-yl)-5-furan-2-yl-1H-pyrazol-4-ylmethyl]-(2-pyridin-4-ylethyl)amine] gave an IC50 of 0.067 µM.
`Cc1nn(-c2ccccc2)c(C)c1CN1CCN(C(=O)[C@]2(C)CC[C@@H](C(=O)O)C2(C)C)CC1` [Example 687] showed an IC50 of 0.21 µM.
Work on `Fc1ccc(-c2ccc(-n3ncc(CN4CCN(CCc5ccc(F)cc5F)CC4)c3-c3cccc(Cl)c3)cc2)cc1` [Example 683, 1-[5-(3-Chlorophenyl)-1-(4′-fluorobiphenyl-4-yl)-1H-pyrazol-4-ylmethyl]-4-[2-(2,4-difluorophenyl)ethyl]piperazine] yielded an IC50 of 0.19 µM.
In the case of `COc1cccc(-c2c(CN3CCC(N4CCCC4)CC3)cnn2-c2ccc(-c3ccc(F)cc3)cc2)c1` [Example 698, 1-[1-(4′-Fluorobiphenyl-4-yl)-5-(3-methoxyphenyl)-1H-pyrazol-4-ylmethyl]-4-pyrrolidin-1-ylpiperidine], the IC50 is reported as 0.42 µM.
`CN(CCc1ccccc1)Cc1cnn(-c2ccc(-c3ccc(F)cc3)cc2)c1-c1ccco1` [Example 579, [1-(4′-Fluorobiphenyl-4-yl)-5-furan-2-yl-1H-pyrazol-4-ylmethyl]methylphenethylamine] was tested, and the IC50 was 0.016 µM.
`CN(C)CCN1CCN(Cc2cnn(-c3ccc(-c4ccc(F)cc4)cc3)c2-c2cccc(Cl)c2)CC1` [Example 701, (2-{4-[5-(3-Chlorophenyl)-1-(4′-fluorobiphenyl-4-yl)-1H-pyrazol-4-ylmethyl]piperazin-1-yl}ethyl)dimethylamine] was tested, and the IC50 was 0.47 µM.
Work on `O=C(O)Cc1cnn(-c2ccccc2F)c1-c1cccs1` [Example 678, 1-(2-Fluorophenyl)-5-(2-thienyl)-4-pyrazoleacetic acid] yielded an IC50 of 0.16 µM.
Work on `CC(C)(C)OC(=O)N1CCN(Cc2cnn(-c3ccc(-c4ccc5c(c4)OCCO5)cc3)c2-c2ccco2)CC1` [Example 572, tert-Butyl 4-{1-[4-(2,3-dihydrobenzo-1,4-dioxin-6-yl)phenyl]-5-furan-2-yl-1H-pyrazol-4-ylmethyl}piperazine-1-carboxylate] yielded an IC50 of 0.012 µM.
With `Cc1noc(C)c1-c1c(CN2CCNCC2)cnn1-c1ccc(-c2ccc(F)cc2)cc1` [Example 691, 1-[5-(3,5-Dimethylisoxazol-4-yl)-1-(4′-fluorobiphenyl-4-yl)-1H-pyrazol-4-ylmethyl]piperazine] the IC50 was 0.25 µM.
Compound `CCCCN(Cc1cnn(-c2ccc(-c3ccc(F)cc3)cc2)c1-c1ccco1)Cc1cnn(-c2ccc(-c3ccc(F)cc3)cc2)c1-c1ccco1` [Example 622, Butylbis-[1-(4′-fluorobiphenyl-4-yl)-5-furan-2-yl-1H-pyrazol-4-ylmethyl]amine] has an IC50 of 0.034 µM.
Compound `CCCN1CCN(Cc2cnn(-c3ccc(-c4ccc(F)cc4)cc3)c2-c2cccc(OC)c2)CC1` [Example 684, 1-[1-(4′-Fluorobiphenyl-4-yl)-5-(3-methoxyphenyl)-1H-pyrazol-4-ylmethyl]-4-propylpiperazine] has an IC50 of 0.19 µM.
`CCN(CC)Cc1cnn(-c2ccc(-c3ccc(F)cc3)cc2)c1-c1cccc(OC)c1` [Example 676, Diethyl-[1-(4′-fluorobiphenyl-4-yl)-5-(3-methoxyphenyl)-1H-pyrazol-4-ylmethyl]amine] showed an IC50 of 0.13 µM.
`CC(C)CCNCc1cnn(-c2ccc(-c3ccc(F)cc3)cc2)c1-c1ccco1` [Example 628, [1-(4′-Fluorobiphenyl-4-yl)-5-furan-2-yl-1H-pyrazol-4-ylmethyl]-(3-methylbutyl)amine] showed an IC50 of 0.036 µM.
In the case of `COCCN1CCN(Cc2cnn(-c3ccc(-c4ccc(F)cc4)cc3)c2-c2cccc(OC)c2)CC1` [Example 685, 1-[1-(4′-Fluorobiphenyl-4-yl)-5-(3-methoxyphenyl)-1H-pyrazol-4-ylmethyl]-4-(2-methoxyethyl)piperazine], the IC50 is reported as 0.19 µM.
Compound `O=C1NCCCCC1NCc1cnn(-c2ccc(-c3ccc(F)cc3)cc2)c1-c1ccco1` (centres unmarked) [Example 694, 3-{[1-(4′-Fluorobiphenyl-4-yl)-5-furan-2-yl-1H-pyrazol-4-ylmethyl]amino}azepan-2-one] has an IC50 of 0.29 µM.
With `OCC1CCN(Cc2cnn(-c3ccc(-c4ccc(F)cc4)cc3)c2-c2ccco2)C1` (centres unmarked) [Example 567, {1-[1-(4′-Fluorobiphenyl-4-yl)-5-furan-2-yl-1H-pyrazol-4-ylmethyl]pyrrolidin-3-yl}methanol] the IC50 was 0.011 µM.
In the case of `NC1CCN(Cc2cnn(-c3ccc(-c4ccc5c(c4)OCO5)cc3)c2-c2ccco2)CC1` [Example 631, 1-[1-(4-Benzo-1,3-dioxol-5-ylphenyl)-5-furan-2-yl-1H-pyrazol-4-ylmethyl]piperidin-4-ylamine], the IC50 is reported as 0.039 µM.
Compound `CN1CCN(Cc2cnn(-c3ccc(-c4ccc(C#N)s4)cc3)c2-c2ccccc2F)CC1` [Example 649, 5-{4-[5-(2-Fluorophenyl)-4-(4-methylpiperazin-1-ylmethyl)pyrazol-1-yl]phenyl}thiophene-2-carbonitrile] has an IC50 of 0.054 µM.
`COc1cccc(-c2c(CN3CCN(C)CC3)cnn2-c2ccc(-c3ccc(F)cc3)cc2)c1` [Example 627, 1-[1-(4′-Fluorobiphenyl-4-yl)-5-(3-methoxyphenyl)-1H-pyrazol-4-ylmethyl]-4-methylpiperazine] was tested, and the IC50 was 0.036 µM.
For `CN1CCN(Cc2cnn(-c3ccc(-c4ccc(F)cc4)cc3)c2-n2cccc2)CC1` [Example 658, 1-[1-(4′-Fluorobiphenyl-4-yl)-5-pyrrol-1-yl-1H-pyrazol-4-ylmethyl]-4-methylpiperazine], the IC50 was 0.074 µM.
With `CC(C)CNCc1cnn(-c2ccc(-c3ccc(F)cc3)cc2)c1-c1ccco1` [Example 654, [1-(4′-Fluorobiphenyl-4-yl)-5-furan-2-yl-1H-pyrazol-4-ylmethyl]isobutylamine] the IC50 was 0.061 µM.
Work on `CC(C)(C)OC(=O)NC1CCN(Cc2cnn(-c3ccc(-c4ccc5c(c4)OCO5)cc3)c2-c2ccco2)CC1` [Example 611, tert-Butyl {1-[1-(4-benzo-1,3-dioxol-5-ylphenyl)-5-furan-2-yl-1H-pyrazol-4-ylmethyl]piperidin-4-yl}carbamate] yielded an IC50 of 0.031 µM.
`OCC(O)CNCc1cnn(-c2ccc(-c3ccc(F)cc3)cc2)c1-c1ccco1` (centres unmarked) [Example 680, 3-{[1-(4′-Fluorobiphenyl-4-yl)-5-furan-2-yl-1H-pyrazol-4-ylmethyl]amino}propane-1,2-diol] showed an IC50 of 0.17 µM.

Source: patent US7842695B2, “Substituted pyrazole compounds” (Merck Patent GmbH, priority 2003, dated 2010)
